Measurements from ChEMBL document CHEMBL3877320, “Synthesis of new analogs of AKBA and evaluation of their anti-inflammatory activities” (Bioorg Med Chem, 2017).
≈ marks a conversion by molar mass, not a printed value.

Test: Inhibition of potato 5-lipoxygenase using linoleic acid as substrate preincubated for 2 mins followed by substrate addition measured for 120 secs
Design: species or system Solanum tuberosum

SMILES | IC50
C[C@H]1[C@H](C)CC[C@]2(C)CC[C@]3(C)C(=CC(=O)[C@@H]4[C@@]5(C)Cc6cn[nH]c6[C@](C)(C(=O)O)[C@@H]5CC[C@]43C)[C@H]12 | > 100 µg/mL
C[C@H]1[C@H](C)CC[C@]2(C)CC[C@]3(C)C(=CC(=O)[C@@H]4[C@@]5(C)CC(C=O)C(=O)[C@](C)(C(=O)N6CCCCC6)[C@@H]5CC[C@]43C)[C@H]12 (some centres undefined) | > 100 µg/mL
C[C@H]1[C@H](C)CC[C@]2(C)CC[C@]3(C)C(=CC(=O)[C@@H]4[C@@]5(C)Cc6cn[nH]c6[C@](C)(C(=O)N6CCNCC6)[C@@H]5CC[C@]43C)[C@H]12 | > 100 µg/mL
C[C@H]1[C@H](C)CC[C@]2(C)CC[C@]3(C)C(=CC(=O)[C@@H]4[C@@]5(C)Cc6cnoc6[C@](C)(C(=O)N6CCCCC6)[C@@H]5CC[C@]43C)[C@H]12 | 20.31 µg/mL (≈ 36.2 µM)
COC(=O)[C@@]1(C)C(=O)C(C#N)=C[C@]2(C)[C@H]3C(=O)C=C4[C@@H]5[C@@H](C)[C@H](C)CC[C@]5(C)CC[C@@]4(C)[C@]3(C)CC[C@@H]12 | > 100 µg/mL
C[C@H]1[C@H](C)CC[C@]2(C)CC[C@]3(C)C(=CC(=O)[C@@H]4[C@@]5(C)Cc6cn[nH]c6[C@](C)(C(=O)N6CCCCC6)[C@@H]5CC[C@]43C)[C@H]12 | > 100 µg/mL
C[C@H]1[C@H](C)CC[C@]2(C)CC[C@]3(C)C(=CC(=O)[C@@H]4[C@@]5(C)CC(C=O)C(=O)[C@](C)(C(=O)Nc6ccccc6)[C@@H]5CC[C@]43C)[C@H]12 (some centres undefined) | 19.53 µg/mL (≈ 34.2 µM)
COC(=O)[C@@]1(C)c2oncc2C[C@@]2(C)[C@H]1CC[C@]1(C)[C@@H]2C(=O)C=C2[C@@H]3[C@@H](C)[C@H](C)CC[C@]3(C)CC[C@]21C | > 100 µg/mL
C[C@H]1[C@H](C)CC[C@]2(C)CC[C@]3(C)C(=CC(=O)[C@@H]4[C@@]5(C)CC(C=O)C(=O)[C@](C)(C(=O)N6CCOCC6)[C@@H]5CC[C@]43C)[C@H]12 (some centres undefined) | > 100 µg/mL
C[C@H]1[C@H](C)CC[C@]2(C)CC[C@]3(C)C(=CC(=O)[C@@H]4[C@@]5(C)Cc6cnoc6[C@](C)(C(=O)N6CCN(C)CC6)[C@@H]5CC[C@]43C)[C@H]12 | > 100 µg/mL
C[C@H]1[C@H](C)CC[C@]2(C)CC[C@]3(C)C(=CC(=O)[C@@H]4[C@@]5(C)CC(C=O)C(=O)[C@@H](C)[C@@H]5CC[C@]43C)[C@H]12 (some centres undefined) | 44.14 µg/mL (≈ 97.5 µM)
C[C@H]1[C@H](C)CC[C@]2(C)CC[C@]3(C)C(=CC(=O)[C@@H]4[C@@]5(C)Cc6cn[nH]c6[C@](C)(C(=O)N6CCN(C)CC6)[C@@H]5CC[C@]43C)[C@H]12 | > 100 µg/mL
C[C@H]1[C@H](C)CC[C@]2(C)CC[C@]3(C)C(=CC(=O)[C@@H]4[C@@]5(C)CC(C=O)C(=O)[C@](C)(C(N)=O)[C@@H]5CC[C@]43C)[C@H]12 (some centres undefined) | > 100 µg/mL
CC(=O)O[C@@H]1CC[C@@]2(C)[C@@H](CC[C@]3(C)[C@@H]2C(=O)C=C2[C@@H]4[C@@H](C)[C@H](C)CC[C@]4(C)CC[C@]23C)[C@@]1(C)C(=O)O [AKBA] | 94.6 µg/mL (≈ 185 µM)
